Data on 29 compounds can be found in US20150299188A1, “HETEROCYCLIC COMPOUND” (priority 2012, published 2015).

The assay has as its system FLAP (5-lipoxygenase activating protein). Description: In vitro binding test: displacement of [3H]-7-chloro-3-(5-((3-fluoropyridin-2-yl)methoxy)-2-methylphenyl)-3,4-dihydroquinazolin-2(1H)-one from Sf9 microsome fractions. The arrangement: species or system human and mouse. The note with it: Sf9 microsome fractions expressing FLAP; 100% = radioligand binding with 10 μM sodium 3-(3-(tert-butylsulfanyl)-1-(4-chlorobenzyl)-5-isopropyl-1H-indol-2-yl)-2,2-dimethylpropanoate, 0% = DMSO; test compound concentration not given. Put shortly: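 Sf9 microsomes expressing human or mouse FLAP (2 μg/mL) preincubated with compound 10 min at room temperature, then 120 nM tritiated quinazolinone ligand added for 60 min; buffer 100 mM Tris-HCl pH 7.5 with NaCl, EDTA, DTT, glycerol, Tween20. Bound ligand filtered and counted by scintillation; 10 μM indole propanoate defines 100% inhibition, DMSO 0%.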
A general note: In a radioligand displacement assay an active substance lowers the binding of a labelled ligand.
With `Cc1ccc(OCc2ncccc2F)cc1N1Cc2ccc(C(=O)NCC(F)(F)F)cc2NC1=O` [Example 303, 3-(5-((3-fluoropyridin-2-yl)methoxy)-2-methylphenyl)-2-oxo-N-(2,2,2-trifluoroethyl)-1,2,3,4-tetrahydroquinazoline-7-carboxamide], the “inhibitory rate (%)” value was found to be 108%.

In the case of `Cc1cc2c(cc1N1Cc3ccc(C(=O)NC4CC4)cc3NC1=O)OC(c1ncccc1F)CC2` (centres unmarked) [Example 184, N-cyclopropyl-3-(2-(3-fluoropyridin-2-yl)-6-methyl-3,4-dihydro-2H-chromen-7-yl)-2-oxo-1,2,3,4-tetrahydroquinazoline-7-carboxamide], the “inhibitory rate (%)” value was determined as 97%.

For the compound `Cc1ccc(OCc2ncccc2F)cc1-n1c(=O)[nH]c2cc(OCC3CC3)ccc2c1=O` [Example 349, 7-(cyclopropylmethoxy)-3-(5-((3-fluoropyridin-2-yl)methoxy)-2-methylphenyl)quinazoline-2,4(1H,3H)-dione], the “inhibitory rate (%)” value amounted to 105%.

`O=c1[nH]c2ccccc2c(=O)n1-c1cccc(OCc2ncccc2F)c1` [Example 346, 3-(3-((3-fluoropyridin-2-yl)methoxy)phenyl)quinazoline-2,4(1H,3H)-dione]: the “inhibitory rate (%)” value came to 96%.

Take `Cc1ccc(OCc2ncc(F)cc2F)cc1N1Cc2ccccc2NC1=O` [Example 247, 3-(5-((3,5-difluoropyridin-2-yl)methoxy)-2-methylphenyl)-3,4-dihydroquinazolin-2(1H)-one]: the “inhibitory rate (%)” value is 99%.

For the compound `O=C(c1cc2c(c(C3CC3)n1)CN(c1cc3c(cc1Cl)CCC(c1ncccc1F)O3)C(=O)N2)N1CC(F)(F)C1` (centres unmarked) [Example 139, 3-(6-chloro-2-(3-fluoropyridin-2-yl)-3,4-dihydro-2H-chromen-7-yl)-5-cyclopropyl-7-((3,3-difluoroazetidin-1-yl)carbonyl)-3,4-dihydropyrido[4,3-d]pyrimidin-2(1H)-one], the “inhibitory rate (%)” value amounted to 98%.

Consider `CC(=O)c1nccc2c1CN(c1cc3c(cc1C)CCC(c1ncccc1F)O3)C(=O)N2` (centres unmarked) [Example 34, 5-acetyl-3-(2-(3-fluoropyridin-2-yl)-6-methyl-3,4-dihydro-2H-chromen-7-yl)-3,4-dihydropyrido[4,3-d]pyrimidin-2(1H)-one], for which the “inhibitory rate (%)” value was found to be 111%.

As to `Cc1ncc(Cl)c2c1NC(=O)N(c1cc3c(cc1Cl)CC[C@H](c1ncccc1F)O3)C2` [Example 8, 5-chloro-3-((2R)-6-chloro-2-(3-fluoropyridin-2-yl)-3,4-dihydro-2H-chromen-7-yl)-8-methyl-3,4-dihydropyrido[3,4-d]pyrimidin-2(1H)-one], the “inhibitory rate (%)” value is reported as 103%.

Consider `O=C1Nc2c(ccnc2Cl)CN1c1cc2c(cc1Cl)CCC(c1ncccc1F)O2` (centres unmarked) [Example 54, 8-chloro-3-(6-chloro-2-(3-fluoropyridin-2-yl)-3,4-dihydro-2H-chromen-7-yl)-3,4-dihydropyrido[3,4-d]pyrimidin-2(1H)-one], for which the “inhibitory rate (%)” value is recorded as 115%.

For the compound `Cn1nccc1-c1nccc2c1CN(c1cc3c(cc1Cl)CCC(c1ncccc1F)O3)C(=O)N2` (centres unmarked) [Example 60, 3-(6-chloro-2-(3-fluoropyridin-2-yl)-3,4-dihydro-2H-chromen-7-yl)-5-(1-methyl-1H-pyrazol-5-yl)-3,4-dihydropyrido[4,3-d]pyrimidin-2(1H)-one], the “inhibitory rate (%)” value was 113%.

As to `O=C1Nc2cc(CO)ccc2CN1c1cc(OCc2c(F)cccc2F)ccc1F` [Example 234, 3-(5-((2,6-difluorobenzyl)oxy)-2-fluorophenyl)-7-(hydroxymethyl)-3,4-dihydroquinazolin-2(1H)-one], the “inhibitory rate (%)” value was determined as 85%.

As to `CCc1nccc2c1CN(c1cc3c(cc1C)CCC(c1ncccc1F)O3)C(=O)N2` (centres unmarked) [Example 27, 5-ethyl-3-(2-(3-fluoropyridin-2-yl)-6-methyl-3,4-dihydro-2H-chromen-7-yl)-3,4-dihydropyrido[4,3-d]pyrimidin-2(1H)-one], the “inhibitory rate (%)” value was 82%.

For the compound `O=C1Nc2ccccc2CN1c1cc(OCc2ncccn2)ccc1Br` [Example 267, 3-(2-bromo-5-(pyrimidin-2-ylmethoxy)phenyl)-3,4-dihydroquinazolin-2(1H)-one], the “inhibitory rate (%)” value is listed as 100%.

Regarding `Cc1ccc(OCc2ncccc2F)cc1N1Cc2c(Cl)cccc2N(CC(=O)O)C1=O` [Example 285, (5-chloro-3-(5-((3-fluoropyridin-2-yl)methoxy)-2-methylphenyl)-2-oxo-3,4-dihydroquinazolin-1(2H)-yl)acetic acid], the “inhibitory rate (%)” value amounted to 102%.

Regarding `Cc1ccc(OCc2ncccc2F)cc1N1Cc2ccc(C(=O)N3CCOCC3)cc2NC1=O` [Example 288, 3-(5-((3-fluoropyridin-2-yl)methoxy)-2-methylphenyl)-7-(morpholin-4-ylcarbonyl)-3,4-dihydroquinazolin-2(1H)-one], the “inhibitory rate (%)” value came to 104%.

`O=C1Nc2cc(N3CCCS3(=O)=O)nc(C3CC3)c2CN1c1cc2c(cc1Cl)CCC(c1ncccc1F)O2` (centres unmarked) [Example 106, 3-(6-chloro-2-(3-fluoropyridin-2-yl)-3,4-dihydro-2H-chromen-7-yl)-5-cyclopropyl-7-(1,1-dioxido-1,2-thiazolidin-2-yl)-3,4-dihydropyrido[4,3-d]pyrimidin-2(1H)-one]: the “inhibitory rate (%)” value turned out to be 94%.

Consider `Cc1cc2c(cc1N1Cc3c(Cl)cc(C(=O)NC4CC4)cc3NC1=O)OC(c1ncccc1F)CC2` (centres unmarked) [Example 82, 5-chloro-N-cyclopropyl-3-(2-(3-fluoropyridin-2-yl)-6-methyl-3,4-dihydro-2H-chromen-7-yl)-2-oxo-1,2,3,4-tetrahydroquinazoline-7-carboxamide], for which the “inhibitory rate (%)” value was 101%.

In the case of `O=C1Nc2cc(-c3noc(=S)[nH]3)nc(C3CC3)c2CN1c1cc2c(cc1Cl)CCC(c1ncccc1F)O2` (centres unmarked) [Example 118, 3-(6-chloro-2-(3-fluoropyridin-2-yl)-3,4-dihydro-2H-chromen-7-yl)-5-cyclopropyl-7-(5-thioxo-4,5-dihydro-1,2,4-oxadiazol-3-yl)-3,4-dihydropyrido[4,3-d]pyrimidin-2(1H)-one], the “inhibitory rate (%)” value was 104%.

As to `O=C1Nc2cc(N3CCOCC3)nc(C3CC3)c2CN1c1cc2c(cc1Cl)CCC(c1ncccc1F)O2` (centres unmarked) [Example 59, 3-(6-chloro-2-(3-fluoropyridin-2-yl)-3,4-dihydro-2H-chromen-7-yl)-5-cyclopropyl-7-(morpholin-4-yl)-3,4-dihydropyrido[4,3-d]pyrimidin-2(1H)-one], the “inhibitory rate (%)” value turned out to be 107%.

As to `CCCN1CCN(Cc2ccc(OCc3ncccc3F)cc2N2Cc3ccccc3NC2=O)CC1` [Example 314, 3-(5-((3-fluoropyridin-2-yl)methoxy)-2-((4-propylpiperazin-1-yl)methyl)phenyl)-3,4-dihydroquinazolin-2(1H)-one], the “inhibitory rate (%)” value is on record as 58%.

On to `O=C1Nc2cc(OC(F)F)nc(C3CC3)c2CN1c1cc2c(cc1Cl)CC[C@H](c1ncccc1F)O2` [Example 19, 3-((2R)-6-chloro-2-(3-fluoropyridin-2-yl)-3,4-dihydro-2H-chromen-7-yl)-5-cyclopropyl-7-(difluoromethoxy)-3,4-dihydropyrido[4,3-d]pyrimidin-2(1H)-one], for which the “inhibitory rate (%)” value is 102%.

Turning to `COCc1ccc2c(c1)NC(=O)N(c1cc(OCc3c(F)cccc3F)ccc1C)C2` [Example 193, 3-(5-((2,6-difluorobenzyl)oxy)-2-methylphenyl)-7-(methoxymethyl)-3,4-dihydroquinazolin-2(1H)-one], the “inhibitory rate (%)” value stood at 97%.

On to `Cc1cc2c(cc1N1Cc3c(Cl)cnc(-c4c(C)nn(C)c4C)c3NC1=O)OC(c1ncccc1F)CC2` (centres unmarked) [Example 13, 5-chloro-3-(2-(3-fluoropyridin-2-yl)-6-methyl-3,4-dihydro-2H-chromen-7-yl)-8-(1,3,5-trimethyl-1H-pyrazol-4-yl)-3,4-dihydropyrido[3,4-d]pyrimidin-2(1H)-one], for which the “inhibitory rate (%)” value was determined as 101%.

Regarding `O=C1Nc2cc(CO)ccc2CN1c1cc(OCc2c(F)cccc2F)ccc1Cc1ccccn1` [Example 317, 3-(5-((2,6-difluorobenzyl)oxy)-2-(pyridin-2-ylmethyl)phenyl)-7-(hydroxymethyl)-3,4-dihydroquinazolin-2(1H)-one], the “inhibitory rate (%)” value was 54%.

As for `Cc1ncc(Cl)c2c1NC(=O)N(c1cc3c(cc1Cl)CC[C@@H](c1ncccc1F)O3)C2` [Example 9, 5-chloro-3-((2S)-6-chloro-2-(3-fluoropyridin-2-yl)-3,4-dihydro-2H-chromen-7-yl)-8-methyl-3,4-dihydropyrido[3,4-d]pyrimidin-2(1H)-one], the “inhibitory rate (%)” value worked out at 104%.

For `COCCOc1cnc(C(F)(F)F)c2c1NC(=O)N(c1cc3c(cc1C)CCC(c1ncccc1F)O3)C2` (centres unmarked) [Example 110, 3-(2-(3-fluoropyridin-2-yl)-6-methyl-3,4-dihydro-2H-chromen-7-yl)-8-(2-methoxyethoxy)-5-(trifluoromethyl)-3,4-dihydropyrido[4,3-d]pyrimidin-2(1H)-one], the “inhibitory rate (%)” value is on record as 99%.

In the case of `Cc1ccc(OCc2ncccc2F)cc1N1Cc2c(Br)cccc2NC1=O` [Example 282, 5-bromo-3-(5-((3-fluoropyridin-2-yl)methoxy)-2-methylphenyl)-3,4-dihydroquinazolin-2(1H)-one], the “inhibitory rate (%)” value was found to be 98%.

Consider `Cc1ccc(OCc2ncccc2F)cc1-n1c(=O)[nH]c2cc(Cl)ccc2c1=O` [Example 351, 7-chloro-3-(5-((3-fluoropyridin-2-yl)methoxy)-2-methylphenyl)quinazoline-2,4(1H,3H)-dione], for which the “inhibitory rate (%)” value came to 107%.

Regarding `O=C(O)CCCCc1ccc(OCc2ncccc2F)cc1N1Cc2ccccc2NC1=O` [Example 251, 5-(4-((3-fluoropyridin-2-yl)methoxy)-2-(2-oxo-1,4-dihydroquinazolin-3(2H)-yl)phenyl)pentanoic acid], the “inhibitory rate (%)” value was 68%.
